From ChEMBL document CHEMBL2202996, “Synthesis, evaluation, and radiolabeling of new potent positive allosteric modulators of the metabotropic glutamate receptor 2 as potential tracers for positron emission tomography imaging” (J Med Chem, 2012)

Legend:
[1] = molecular target: T1, Metabotropic glutamate receptor 2 (Homo sapiens, UniProt Q14416); assay: Agonist activity at human mGLuR2 expressed in CHO cell membrane assessed as […] after 30 mins by scintillation counting; format: functional, cell membranes
Target sequence in this assay (Q14416 whole entry): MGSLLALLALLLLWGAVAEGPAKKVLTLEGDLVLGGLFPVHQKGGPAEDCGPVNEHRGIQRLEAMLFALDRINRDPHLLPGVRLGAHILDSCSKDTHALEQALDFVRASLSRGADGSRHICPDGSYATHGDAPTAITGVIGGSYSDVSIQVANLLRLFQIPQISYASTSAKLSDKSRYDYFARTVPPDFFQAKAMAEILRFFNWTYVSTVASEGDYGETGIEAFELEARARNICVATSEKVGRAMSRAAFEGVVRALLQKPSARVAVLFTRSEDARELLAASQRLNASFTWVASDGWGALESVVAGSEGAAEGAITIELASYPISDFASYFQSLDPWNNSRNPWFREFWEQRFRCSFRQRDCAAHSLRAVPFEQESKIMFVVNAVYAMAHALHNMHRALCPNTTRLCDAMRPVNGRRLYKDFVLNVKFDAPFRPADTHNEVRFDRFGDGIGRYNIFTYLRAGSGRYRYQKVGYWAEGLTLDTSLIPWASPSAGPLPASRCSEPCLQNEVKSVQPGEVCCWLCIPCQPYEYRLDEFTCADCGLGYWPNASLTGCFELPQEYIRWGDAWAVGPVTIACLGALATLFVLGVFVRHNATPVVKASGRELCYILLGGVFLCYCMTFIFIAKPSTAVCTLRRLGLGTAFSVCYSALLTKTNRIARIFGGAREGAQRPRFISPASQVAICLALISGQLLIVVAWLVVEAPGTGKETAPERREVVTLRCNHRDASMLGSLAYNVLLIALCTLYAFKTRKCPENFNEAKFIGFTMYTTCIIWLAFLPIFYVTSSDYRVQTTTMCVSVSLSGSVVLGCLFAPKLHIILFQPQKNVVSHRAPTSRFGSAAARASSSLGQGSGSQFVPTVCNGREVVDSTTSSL

Liver microsomes [2] = assay: Drug metabolism in rat liver microsomes assessed as M+O oxidative metabolite; format: ADME, Microsome
Liver microsomes [3] = assay: Drug metabolism in human liver microsomes assessed as M+O oxidative metabolite; format: ADME, Microsome
[4] = molecular target: T1, Metabotropic glutamate receptor 2; assay: Agonist activity at human mGLuR2 expressed in CHO cell membrane assessed as […] after 30 mins by scintillation counting relative to control; format: functional, cell membranes
Target sequence in this assay (Q14416 19-872 limits assumed): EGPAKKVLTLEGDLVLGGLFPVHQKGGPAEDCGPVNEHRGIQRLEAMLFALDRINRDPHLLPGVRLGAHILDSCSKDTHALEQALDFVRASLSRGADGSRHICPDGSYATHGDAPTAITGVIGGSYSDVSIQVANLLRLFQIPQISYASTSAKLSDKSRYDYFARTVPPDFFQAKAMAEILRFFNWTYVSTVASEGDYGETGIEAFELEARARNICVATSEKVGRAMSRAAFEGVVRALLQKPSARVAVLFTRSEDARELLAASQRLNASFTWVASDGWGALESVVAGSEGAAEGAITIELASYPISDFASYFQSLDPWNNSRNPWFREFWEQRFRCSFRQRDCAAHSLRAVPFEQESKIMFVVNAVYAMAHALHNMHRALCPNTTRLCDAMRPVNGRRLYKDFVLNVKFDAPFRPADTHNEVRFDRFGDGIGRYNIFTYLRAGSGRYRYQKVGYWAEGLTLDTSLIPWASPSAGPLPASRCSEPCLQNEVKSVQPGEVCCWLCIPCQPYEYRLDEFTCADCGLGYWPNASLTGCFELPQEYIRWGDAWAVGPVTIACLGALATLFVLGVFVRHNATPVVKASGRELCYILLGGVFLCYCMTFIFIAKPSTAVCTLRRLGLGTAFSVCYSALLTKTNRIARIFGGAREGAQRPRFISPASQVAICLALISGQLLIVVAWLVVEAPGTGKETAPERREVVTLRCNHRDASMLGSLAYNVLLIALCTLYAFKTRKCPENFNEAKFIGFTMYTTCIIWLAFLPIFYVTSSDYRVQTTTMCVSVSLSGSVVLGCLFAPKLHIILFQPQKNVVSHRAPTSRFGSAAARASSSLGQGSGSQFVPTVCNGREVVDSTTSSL

HEK293 [5] = assay: Selectivity ratio for human mGluR1 expressed in HEK293 cells to human mGluR2 expressed in CHO cell membranes; format: cell-based
HEK293 [6] = assay: Selectivity ratio for human mGluR7 expressed in HEK293 cells to human mGluR2 expressed in CHO cell membranes; format: cell-based
[7] = molecular target: T1, Metabotropic glutamate receptor 2; assay: Displacement of [3H]JNJ-40068782 from human mGLuR2 expressed in CHO cell membrane after 60 mins by liquid scintillation counting; format: cell membranes
Target sequence in this assay (Q14416 whole entry): as the sequence (Q14416 whole entry) above

HEK293 [8] = assay: Selectivity ratio for human mGluR5 expressed in HEK293 cells to human mGluR2 expressed in CHO cell membranes; format: cell-based
[9] = Fraction unbound in rat plasma; format: ADME, cell-free
Liver microsomes [10] = assay: Drug metabolism in rat liver microsomes assessed as O-methylated compound derivative; format: ADME, Microsome
[11] = Fraction unbound in human plasma; format: ADME, cell-free
CHO [12] = assay: Selectivity ratio for human mGluR4 to human mGluR2 expressed in CHO cell membranes; format: cell-based
HEK293 [13] = assay: Selectivity ratio for human mGluR3 expressed in HEK293 cells to human mGluR2 expressed in CHO cell membranes; format: cell-based
CHO [14] = assay: Selectivity ratio for rat mGluR6 to human mGluR2 expressed in CHO cell membranes; format: cell-based
Liver microsomes [15] = assay: Drug metabolism in human liver microsomes assessed as O-methylated compound derivative; format: ADME, Microsome
HEK293 [16] = assay: Selectivity ratio for human mGluR8 expressed in HEK293 cells to human mGluR2 expressed in CHO cell membranes; format: cell-based
Cerebrum [17] = assay: Ratio of SUV in cerebrum in iv dosed Wistar at 2 mins post administration by gamma counting to SUV in cerebrum in iv dosed Wistar at 30 mins post administration by gamma counting; format: ADME, organism-based; details: rat, in vivo
[18] = Metabolic stability in Wistar rat plasma assessed as intact tracer at 74 MBq, iv measured at 30 mins post administration by gamma counting; format: ADME, organism-based; details: read-out: Stability
Cerebrum [19] = assay: Biodistribution in Wistar rat cerebrum at 22 Mbq, iv measured at 2 mins post administration by gamma counting; format: ADME, organism-based; details: in vivo
Rattus norvegicus = assay: Biodistribution in Wistar rat urinary system at 22 Mbq, iv measured at 60 mins post administration by gamma counting; format: ADME, organism-based, Urine; details: in vivo, 1 h
[20] = Metabolic stability in Wistar rat cerebellum assessed as intact tracer at 74 MBq, iv measured at 30 mins post administration by gamma counting; format: ADME, organism-based; details: read-out: Stability
Striatum = assay: Ratio of SUV in striatum in iv dosed Wistar at 2 mins post administration by gamma counting to SUV in striatum in iv dosed Wistar at 30 mins post administration by gamma counting; format: ADME, organism-based; details: rat, in vivo
Cortex = assay: Ratio of SUV in cortex in iv dosed Wistar at 2 mins post administration by gamma counting to SUV in cortex in iv dosed Wistar at 30 mins post administration by gamma counting; format: ADME, organism-based; details: rat, in vivo
Cerebellum [21] = assay: Biodistribution in Wistar rat cerebellum at 22 Mbq, iv measured at 2 mins post administration by gamma counting; format: ADME, organism-based; details: in vivo
Brain [22] = assay: Ratio of SUV in total brain in iv dosed Wistar at 2 mins post administration by gamma counting to SUV in total brain in iv dosed Wistar at 30 mins post administration by gamma counting; format: ADME, organism-based; details: rat, in vivo
Brain [23] = assay: Biodistribution in Wistar rat brain at 22 Mbq, iv measured at 2 mins post administration by gamma counting; format: ADME, organism-based; details: in vivo
[24] = Metabolic stability in Wistar rat cerebrum assessed as intact tracer at 74 MBq, iv measured at 30 mins post administration by gamma counting; format: ADME, organism-based; details: read-out: Stability
Liver = assay: Biodistribution in Wistar rat liver at 22 Mbq, iv measured at 60 mins post administration by gamma counting; format: ADME, organism-based; details: in vivo, 1 h
Hippocampus = assay: Ratio of SUV in hippocampus in iv dosed Wistar at 2 mins post administration by gamma counting to SUV in hippocampus in iv dosed Wistar at 30 mins post administration by gamma counting; format: ADME, organism-based; details: rat, in vivo
Cerebellum [25] = assay: Ratio of SUV in cerebellum in iv dosed Wistar at 2 mins post administration by gamma counting to SUV in cerebellum in iv dosed Wistar at 30 mins post administration by gamma counting; format: ADME, organism-based; details: rat, in vivo
Intestine = assay: Biodistribution in Wistar rat intestine at 22 Mbq, iv measured at 60 mins post administration by gamma counting; format: ADME, organism-based; details: in vivo, 1 h

| Drug metabolism (Liver microsomes [2]) | Drug metabolism (Liver microsomes [3]) | Emax [4] [%] | fraction unbound [9] | Drug metabolism (Liver microsomes [10]) | fraction unbound [11] | Drug metabolism (Liver microsomes [15]) | Ratio (Cerebrum [17]) | remaining at 0.5 h [18] [%] | Drug uptake (Cerebrum [19]) [%ID] | Drug uptake (Rattus norvegicus) | remaining at 0.5 h [20] [%] | Ratio (Striatum) | Ratio (Cortex) | Drug uptake (Cerebellum [21]) [%ID] | Ratio (Brain [22]) | Drug uptake (Brain [23]) [%ID] | remaining at 0.5 h [24] [%] | Ratio (Hippocampus) | Ratio (Cerebellum [25]) | SMILES | further results |
| --- | --- | --- | --- | --- | --- | --- | --- | --- | --- | --- | --- | --- | --- | --- | --- | --- | --- | --- | --- | --- | --- |
|  |  |  |  |  |  |  |  |  |  |  |  |  |  |  |  |  |  |  |  | N#Cc1c(N2CCC(c3ccccc3)CC2)ccn2c(CC(F)(F)F)nnc12 | EC50 ([1]; read-out: pEC50 (converted)): 56.2 nM |
| Active | Active | 256 | < 0.01 | Active | < 0.01 | Active |  |  |  |  |  |  |  |  |  |  |  |  |  | COc1cc(F)cc(F)c1C1CCN(c2ccn3c(CC4CC4)nnc3c2Cl)CC1 | Selectivity ratio (HEK293 [5]): > 350; Selectivity ratio (HEK293 [6]): > 350; IC50 [7]: 5.6 nM; Selectivity ratio (HEK293 [8]): > 350; Selectivity ratio (CHO [12]): > 350; Selectivity ratio (HEK293 [13]): > 350; Selectivity ratio (CHO [14]): > 350; Selectivity ratio (HEK293 [16]): > 350 |
|  |  |  |  |  |  |  | 0.72 | 30.8 | 0.53 | Active | 95.5 | 0.67 | 0.66 | 0.18 | 0.88 | 0.75 | 92.9 | 0.71 | 0.77 | [11CH3]Oc1cc(F)cc(F)c1C1CCN(c2ccn3c(CC4CC4)nnc3c2Cl)CC1 | Drug uptake (Liver): Active; Drug uptake (Intestine): Active |
| Active | Active | 306 | 0.04 | Active | 0.047 | Active |  |  |  |  |  |  |  |  |  |  |  |  |  | COc1c(F)cccc1C1CCN(c2ccn3c(CC(F)(F)F)nnc3c2C#N)CC1 | EC50 ([1]; read-out: EC50): 31 nM |
| Active | Active | 336 | < 0.01 | Active | < 0.01 | Active |  |  |  |  |  |  |  |  |  |  |  |  |  | COc1c(F)cccc1C1CCN(c2ccn3c(CC4CC4)nnc3c2Cl)CC1 |  |
|  |  |  |  |  |  |  | 0.84 | 45.5 | 0.46 | Active | 96.4 | 0.99 | 0.84 | 0.15 | 0.93 | 0.64 | 93.1 | 1.19 | 0.95 | [11CH3]Oc1ccc(F)c(F)c1C1CCN(c2ccn3c(CC4CC4)nnc3c2Cl)CC1 | Drug uptake (Liver): Active; Drug uptake (Intestine): Active |
|  |  |  |  |  |  |  | 0.98 |  | 0.54 |  |  | 0.86 | 1.04 | 0.17 | 1.08 | 0.75 |  | 1.01 | 0.99 | [11CH3]Oc1c(F)ccc(F)c1C1CCN(c2ccn3c(CC4CC4)nnc3c2C(F)(F)F)CC1 |  |
|  |  |  |  |  |  |  | 0.83 | 41 | 0.45 | Active | 92.7 | 0.63 | 0.88 | 0.1 | 0.79 | 0.58 | 92.4 | 0.66 | 0.63 | [11CH3]Oc1ccc(F)cc1C1CCN(c2ccn3c(CC4CC4)nnc3c2Cl)CC1 | Drug uptake (Liver): Active; Drug uptake (Intestine): Active |
